“And” between values parts separate entries of the source, which are not always exact repeats. Identical values can stand only once. Inconclusive results and toxic doses are left out.
System: CD2F1 mice, L1210 leukemia ip, survival T/C
Assay: NCI In Vivo Anticancer Drug Screen. Data for tumor model L1210 Leukemia (intraperitoneal) in CD2F1 (CDF1) mice
Conditions: higher = longer survival
Summary of the method: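 In this screen, transplantable tumors were grown in mice given either the compound or its vehicle. Results were expressed as the treated measurement relative to the control measurement.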

[1] = endpoint: mean survival time, dose: 12.5 mg/kg/injection, schedule: Q01DX009 (ip), vehicle: saline
[2] = endpoint: mean survival time, dose: 25.0 mg/kg/injection, schedule: Q01DX009 (ip), vehicle: saline
[3] = endpoint: mean survival time, dose: 100.0 mg/kg/injection, schedule: Q01DX009 (ip), vehicle: saline
[4] = endpoint: mean survival time, dose: 100.0 mg/kg/injection, schedule: Q04DX003 (ip), vehicle: Klucel (hydroxypropylcellulose) (HPC)
[5] = endpoint: mean survival time, dose: 200.0 mg/kg/injection, schedule: Q04DX003 (ip), vehicle: Klucel (hydroxypropylcellulose) (HPC)
[6] = endpoint: mean survival time, dose: 400.0 mg/kg/injection, schedule: Q04DX003 (ip), vehicle: Klucel (hydroxypropylcellulose) (HPC)
[7] = endpoint: mean survival time, dose: 100.0 mg/kg/injection, schedule: Q01DX009 (ip), vehicle: saline with Tween-80
[8] = endpoint: mean survival time, dose: 100.0 mg/kg/injection, schedule: Q04DX003 (ip), vehicle: saline with Tween-80
[9] = endpoint: mean survival time, dose: 200.0 mg/kg/injection, schedule: Q01DX009 (ip), vehicle: saline with Tween-80
[10] = endpoint: mean survival time, dose: 200.0 mg/kg/injection, schedule: Q04DX003 (ip), vehicle: saline with Tween-80
[11] = endpoint: mean survival time, dose: 400.0 mg/kg/injection, schedule: Q01DX009 (ip), vehicle: saline with Tween-80
[12] = endpoint: mean survival time, dose: 400.0 mg/kg/injection, schedule: Q04DX003 (ip), vehicle: saline with Tween-80
[13] = endpoint: mean survival time, dose: 50.0 mg/kg/injection, schedule: Q01DX009 (ip), vehicle: saline with Tween-80

COc1ccc2c(c1O)CNCC2O (configuration not stated)
T/C (endpoint: mean survival time, dose: 100.0 mg/kg/injection, schedule: Q01DX001 (ip), vehicle: saline): 102 % of control
T/C (endpoint: mean survival time, dose: 200.0 mg/kg/injection, schedule: Q01DX001 (ip), vehicle: saline): 101 % of control
T/C (endpoint: mean survival time, dose: 400.0 mg/kg/injection, schedule: Q01DX001 (ip), vehicle: saline): 101 % of control

O=C(O)/C=C/C=C/C(=O)O
T/C (endpoint: mean survival time, dose: 100.0 mg/kg/injection, schedule: Q01DX001 (ip), vehicle: saline with Tween-80): 102 % of control and 101 % of control
T/C (endpoint: mean survival time, dose: 200.0 mg/kg/injection, schedule: Q01DX001 (ip), vehicle: saline with Tween-80): 104 % of control and 93 % of control
T/C (endpoint: mean survival time, dose: 400.0 mg/kg/injection, schedule: Q01DX001 (ip), vehicle: saline with Tween-80): 100 % of control and 101 % of control

O=C1CN(CN2CCOCC2)C(=O)CN1CN1CCOCC1
T/C [1]: 98 % of control and 101 % of control
T/C [2]: 96 % of control and 98 % of control
T/C (endpoint: mean survival time, dose: 50.0 mg/kg/injection, schedule: Q01DX009 (ip), vehicle: saline): 90 % of control and 102 % of control
T/C [3]: 102 % of control and 108 % of control
T/C (endpoint: mean survival time, dose: 200.0 mg/kg/injection, schedule: Q01DX009 (ip), vehicle: saline): 106 % of control and 111 % of control
T/C (endpoint: mean survival time, dose: 400.0 mg/kg/injection, schedule: Q01DX009 (ip), vehicle: saline): 93 % of control and 107 % of control

Cc1cc(C)c(F)[c]([Hg][Br])c1N
T/C (endpoint: mean survival time, dose: 3.13 mg/kg/injection, schedule: Q01DX009 (ip), vehicle: Klucel (hydroxypropylcellulose) (HPC)): 102 % of control
T/C (endpoint: mean survival time, dose: 6.25 mg/kg/injection, schedule: Q01DX009 (ip), vehicle: Klucel (hydroxypropylcellulose) (HPC)): 113 % of control
T/C (endpoint: mean survival time, dose: 12.5 mg/kg/injection, schedule: Q01DX009 (ip), vehicle: Klucel (hydroxypropylcellulose) (HPC)): 105 % of control

COC(=O)C1(F)C(=O)NC(=O)NC1OC (configuration not stated)
T/C (endpoint: median survival time, dose: 50.0 mg/kg/injection, schedule: Q01DX005 (ip), vehicle: Klucel (hydroxypropylcellulose) (HPC)): 124 % of control
T/C (endpoint: median survival time, dose: 50.0 mg/kg/injection, schedule: Q01DX005 (ip), vehicle: saline with Tween-80): 124 % of control
T/C (endpoint: median survival time, dose: 50.0 mg/kg/injection, schedule: Q01DX009 (ip), vehicle: Klucel (hydroxypropylcellulose) (HPC)): 121 % of control
T/C (endpoint: median survival time, dose: 72.0 mg/kg/injection, schedule: Q01DX009 (ip), vehicle: Klucel (hydroxypropylcellulose) (HPC)): 153 % of control
T/C (endpoint: median survival time, dose: 100.0 mg/kg/injection, schedule: Q01DX005 (ip), vehicle: saline with Tween-80): 156 % of control
T/C (endpoint: median survival time, dose: 100.0 mg/kg/injection, schedule: Q01DX009 (ip), vehicle: Klucel (hydroxypropylcellulose) (HPC)): 158 % of control and 176 % of control
T/C (endpoint: median survival time, dose: 120.0 mg/kg/injection, schedule: Q01DX009 (ip), vehicle: Klucel (hydroxypropylcellulose) (HPC)): 172 % of control
T/C (endpoint: median survival time, dose: 200.0 mg/kg/injection, schedule: Q01DX005 (ip), vehicle: Klucel (hydroxypropylcellulose) (HPC)): 183 % of control
T/C (endpoint: median survival time, dose: 200.0 mg/kg/injection, schedule: Q01DX005 (ip), vehicle: saline with Tween-80): 178 % of control
T/C (endpoint: median survival time, dose: 200.0 mg/kg/injection, schedule: Q01DX009 (ip), vehicle: Klucel (hydroxypropylcellulose) (HPC)): 159 % of control and 197 % of control and 238 % of control
T/C (endpoint: median survival time, dose: 400.0 mg/kg/injection, schedule: Q01DX005 (ip), vehicle: Klucel (hydroxypropylcellulose) (HPC)): 185 % of control
T/C (endpoint: median survival time, dose: 400.0 mg/kg/injection, schedule: Q01DX005 (ip), vehicle: saline with Tween-80): 112 % of control
T/C (endpoint: median survival time, dose: 800.0 mg/kg/injection, schedule: Q01DX005 (ip), vehicle: Klucel (hydroxypropylcellulose) (HPC)): 104 % of control
T/C (endpoint: median survival time, dose: 800.0 mg/kg/injection, schedule: Q01DX005 (ip), vehicle: saline with Tween-80): 109 % of control
T/C (endpoint: median survival time, dose: 800.0 mg/kg/injection, schedule: Q01DX009 (ip), vehicle: Klucel (hydroxypropylcellulose) (HPC)): 108 % of control

O=C(O)CS (tested in a mixture with another compound)
T/C [1]: 102 % of control
T/C [2]: 93 % of control
T/C [3]: 93 % of control

C=CC[N+]12CC=C3COC(=O)C(C)(O)C(C)(O)C(C)C(=O)OC(CC1)C32 (configuration not stated)
T/C [4]: 101 % of control
T/C [5]: 90 % of control
T/C [6]: 93 % of control

COC(=O)C(=[N+]=[N-])C(=O)OC
T/C [7]: 93 % of control
T/C [8]: 101 % of control
T/C [9]: 93 % of control
T/C [10]: 101 % of control
T/C [11]: 91 % of control
T/C [12]: 98 % of control

COC(=O)C1(C)CCCC2(C)C1CCC13OCC(CC21)C(=C(C)C)C3OC(C)=O (configuration not stated)
T/C [8]: 100 % of control
T/C [10]: 95 % of control
T/C [12]: 100 % of control

CCC(C)C1NC(=O)C(NC(=O)c2c3nc4c(C(=O)NC5C(=O)NC(C(C)CC)C(=O)N6CCCC6C(=O)N(C)CC(=O)N(C)C(C(C)C)C(=O)OC5C)cc([N+](=O)[O-])c(C)c4oc-3c(C)c(=O)c2N)C(C)OC(=O)C(C(C)C)N(C)C(=O)CN(C)C(=O)C2CCCN2C1=O (configuration not stated)
T/C (endpoint: mean survival time, dose: 0.05 mg/kg/injection, schedule: Q01DX009 (ip), vehicle: water): 107 % of control
T/C (endpoint: mean survival time, dose: 0.1 mg/kg/injection, schedule: Q01DX009 (ip), vehicle: water): 116 % of control
T/C (endpoint: mean survival time, dose: 0.2 mg/kg/injection, schedule: Q01DX009 (ip), vehicle: water): 112 % of control
T/C (endpoint: mean survival time, dose: 0.4 mg/kg/injection, schedule: Q01DX009 (ip), vehicle: water): 94 % of control

N#CC1c2ccccc2C=CN1C(=O)OCc1ccccc1 (configuration not stated)
T/C [4]: 91 % of control
T/C [5]: 110 % of control
T/C [6]: 106 % of control

CC1CCCCN1C(=O)Nc1c(Cl)cccc1Cl (configuration not stated)
T/C [13]: 98 % of control
T/C [7]: 105 % of control
T/C [9]: 94 % of control

CC12C(=O)C(C(c3ccccc3)=C1c1ccccc1)C(C(=O)O)C2C(=O)O (configuration not stated)
T/C [8]: 89 % of control
T/C [10]: 93 % of control
T/C [12]: 101 % of control

COc1ccc(/C(C)=N/N=C\c2cc(OC)c(OC)c(OC)c2)cc1
T/C [7]: 91 % of control
T/C [9]: 89 % of control
T/C [11]: 88 % of control

c1ccc(-c2nnc(-c3ccccc3)nn2)cc1
T/C [7]: 98 % of control
T/C [8]: 98 % of control
T/C [9]: 98 % of control
T/C [10]: 101 % of control
T/C [11]: 95 % of control
T/C [12]: 96 % of control

O=c1ccc2ccccc2o1
T/C (endpoint: mean survival time, dose: 50.0 mg/kg/injection, schedule: Q01DX009 (ip), vehicle: Klucel (hydroxypropylcellulose) (HPC)): 100 % of control
T/C (endpoint: mean survival time, dose: 100.0 mg/kg/injection, schedule: Q01DX009 (ip), vehicle: Klucel (hydroxypropylcellulose) (HPC)): 96 % of control
T/C (endpoint: mean survival time, dose: 200.0 mg/kg/injection, schedule: Q01DX009 (ip), vehicle: Klucel (hydroxypropylcellulose) (HPC)): 96 % of control

COc1ccc(CC(N)C(=O)O)cc1N(CCCl)CCCl (configuration not stated)
T/C (endpoint: mean survival time, dose: 3.2 mg/kg/injection, schedule: Q01DX001 (ip), vehicle: carboxymethylcellulose (CMC)): 122 % of control

Cc1ccc(NC(=O)OCCOc2ccc(Cl)cc2)cc1[N+](=O)[O-]
T/C [13]: 96 % of control
T/C [7]: 88 % of control
T/C [9]: 88 % of control

C#CC(OC(=O)Nc1ccccc1)C1OC2OC(C)(C)OC2C2OC(C)(C)OC12 (configuration not stated)
T/C [13]: 97 % of control
T/C [7]: 93 % of control
T/C [9]: 97 % of control

Nc1ccc2ccccc2c1N=Nc1ccc(C(O)C(N)CO)cc1 (configuration not stated)
T/C (endpoint: mean survival time, dose: 6.25 mg/kg/injection, schedule: Q04DX003 (ip), vehicle: saline with Tween-80): 100 % of control
T/C (endpoint: mean survival time, dose: 12.5 mg/kg/injection, schedule: Q04DX003 (ip), vehicle: saline with Tween-80): 96 % of control
T/C (endpoint: mean survival time, dose: 25.0 mg/kg/injection, schedule: Q04DX003 (ip), vehicle: saline with Tween-80): 94 % of control

COc1ccc(OC)c(NC(=O)NNc2ccc([N+](=O)[O-])cc2[N+](=O)[O-])c1
T/C [7]: 88 % of control
T/C [9]: 91 % of control

CC(NC(=O)OCc1ccccc1)C(=O)NC(CC(=O)O)C(=O)O (configuration not stated)
T/C (endpoint: mean survival time, dose: 100.0 mg/kg/injection, schedule: Q04DX003 (ip), vehicle: saline): 92 % of control

CCC1(O)C(=O)OCc2c1cc1n(c2=O)Cc2cc3ccc(/C=N/N=C(N)N)cc3nc2-1 (configuration not stated)
T/C (endpoint: median survival time, dose: 10.0 mg/kg/injection, schedule: Q04DX002 (ip), vehicle: saline with Tween-80): 106 % of control
T/C (endpoint: median survival time, dose: 20.0 mg/kg/injection, schedule: Q04DX002 (ip), vehicle: saline with Tween-80): 113 % of control
T/C (endpoint: median survival time, dose: 40.0 mg/kg/injection, schedule: Q04DX002 (ip), vehicle: saline with Tween-80): 102 % of control
T/C (endpoint: median survival time, dose: 80.0 mg/kg/injection, schedule: Q04DX002 (ip), vehicle: saline with Tween-80): 102 % of control
